The values below come from patent US5703083A, “N-aminoalkyl-1-biphenylenyl-2-carboxamides; new dopamine receptor subtype specific ligands” (Neurogen Corporation, priority 1996, dated 1997).

Assay [1] has as its target D2 receptors from African Green monkey. As to the kind of experiment: D2 receptor binding (displacement of 3H-YM 09151-2). To be noted: COS cells with recombinant D2 receptors; 0.5 nM 3H-YM 09151-2; nonspecific binding with 1 mM spiperone. Here is the method: (§1) Pellets of COS cells containing recombinantly produced D2 or D3 receptors from African Green monkey were used for the assays. The sample is homogenized in 100 volumes (w/vol) of 0.05M Tris HCI buffer at 4° C and pH 7.4. The sample is then centfifuged at 30,000×g and resuspended and rehomogenized. The sample is then centdfuged as described and the final tissue sample is frozen until use. The tissue is resuspended 1:20 (wt/vol) in 0.05M Tris HCl buffer containing 100 mM NaCl.
(§2) Incubations are carried out at 48° C and contain 0.4 ml of tissue sample, 0.5 nM ^3 H-YM 09151-2 and the compound of interest in a total incubation of 1.0 ml. Nonspecific binding is defined as that binding found in the presence of 1 mM spiperone; without further additions, nonspecific binding is less than 20% of total binding. The binding characteristics of representative compounds of the invention for D2 and D3 receptor subtypes are shown in Table 2 for rat striatal homogenates.

Assay [2] concerns the target T1, D3 receptors from African Green monkey (Chlorocebus aethiops, UniProt P52703).
T1 construct: expressed in transfected cells; host or cells: COS cells
As to the kind of experiment: D3 receptor binding (displacement of 3H-YM 09151-2). The settings on record: COS cells with recombinant D3 receptors; 0.5 nM 3H-YM 09151-2; nonspecific binding with 1 mM spiperone. The method, then:
as §1, §2

Structures can show the parent of a compound that is named as a salt.

T1 sequence (P52703 whole entry): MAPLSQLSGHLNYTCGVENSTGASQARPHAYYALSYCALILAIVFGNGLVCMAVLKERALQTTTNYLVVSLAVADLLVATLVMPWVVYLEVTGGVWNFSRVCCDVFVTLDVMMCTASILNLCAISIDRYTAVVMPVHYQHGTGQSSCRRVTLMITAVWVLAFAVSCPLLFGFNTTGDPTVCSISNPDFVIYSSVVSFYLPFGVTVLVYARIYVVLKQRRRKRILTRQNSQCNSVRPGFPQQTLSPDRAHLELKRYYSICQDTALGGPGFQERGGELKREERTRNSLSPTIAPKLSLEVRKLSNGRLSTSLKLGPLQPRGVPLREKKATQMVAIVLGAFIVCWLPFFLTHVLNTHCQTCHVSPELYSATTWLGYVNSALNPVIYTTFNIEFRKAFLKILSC

What is called Ki is a measure of affinity in units of concentration, obtained from inhibition or displacement. As to `COc1ccccc1N1CCN(CCCCNC(=O)c2ccc3c(c2)-c2ccccc2-3)CC1` [Compound 1, 1-(2-Methoxyphenyl)-4-{4-[N-(1-biphenylene-2-carboxamido)]butyl}piperazine], the Ki stood at 323 nM in assay [1] and 5 nM in assay [2].

As to `O=C(NCCCCN1CCN(c2cccc3ccccc23)CC1)c1ccc2c(c1)-c1ccccc1-2` [Compound 3, 1-(1-Napthyl)-4-{4-[N-(1-biphenylene-2-carboxamido)]butyl}piperazine dihydrochloride], the inhibition constant (Ki) in assay [1] came out at 138 nM; in assay [2], 3 nM.

Turning to `O=C(NCCCCN1CCN(c2nccc3ccccc23)CC1)c1ccc2c(c1)-c1ccccc1-2` [Compound 4, 1-(1-Isoquinolyl)-4-{4-[N-(1-biphenylene-2-carboxamido)]butyl}piperazine d ihydrochloride], the inhibition constant (Ki) in assay [1] was greater than 100 nM; in assay [2] it was 15 nM.
